This is an account of results in patent publication US10800791B2, “Triazole ACC inhibitors and uses thereof” (Gilead Apollo, LLC, priority 2015, dated 2020).

For one assay, the system named is Diplodia maydis (Dm). Kind of assay: Growth inhibition assay of fungal pathogens, Dm. The class given is cell-based. Conditions: Stenocarpella maydis, 48 h. In a few lines:
(§1)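 Percent inhibition derived at 48 hours from OD600 and visual scores versus 2% DMSO control, with media+DMSO blank as background. Spore inocula in 17% V8 medium were sized from 48 h growth curves; compounds tested at final 50/10/2 or 2/0.4/0.08 ppm.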

For assay [1], the system named is Fusarium virguliforme (Fv). Kind of assay: Growth inhibition assay of fungal pathogens, Fv. The class given is cell-based. Conditions: 48 h. In a few lines: as §1
The test system of a further assay is Rhizoctonia solani (Rs). Kind of assay: Growth inhibition assay of fungal pathogens, Rs. The class given is cell-based. To be noted: 48 h.
The subject of a further assay is C. parapsilosis. Kind of assay: Antifungal Activity Assay (broth microtiter MIC), C. parapsilosis. The format is cell-based, Candida parapsilosis. Conditions: Lodderomyces parapsilosis, ATCC22019, 48 h. In outline: (§2)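 Colonies from 24 h Sabouraud dextrose agar plates (35° C) are suspended in RPMI 1640+MOPS and diluted to give 2.5×10^3 CFU/mL in the wells. Plates are set up per CLSI M27-A3. Visual MIC is recorded at 48 h.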

The subject of assay [2] is Phytophthora capsici (Pc). Kind of assay: Growth inhibition assay of fungal pathogens, Pc. Conditions: 48 h. The format is cell-based. In a few lines: as §1
The target of another assay is human (hACC2) (Homo sapiens, UniProt O00763). Kind of assay: In vitro ACC inhibition assay (ADP-Glo), hACC2. The format is biochemical. Conditions: 5 nM ACC2, 20 μM ATP, 20 μM acetyl-CoA. On the procedure: The detailed procedure is as follows. […] 10 μL ADP glo reagent was added. […] 20 μL kinase detection reagent was added.
Sequence of human (hACC2) (O00763 whole entry): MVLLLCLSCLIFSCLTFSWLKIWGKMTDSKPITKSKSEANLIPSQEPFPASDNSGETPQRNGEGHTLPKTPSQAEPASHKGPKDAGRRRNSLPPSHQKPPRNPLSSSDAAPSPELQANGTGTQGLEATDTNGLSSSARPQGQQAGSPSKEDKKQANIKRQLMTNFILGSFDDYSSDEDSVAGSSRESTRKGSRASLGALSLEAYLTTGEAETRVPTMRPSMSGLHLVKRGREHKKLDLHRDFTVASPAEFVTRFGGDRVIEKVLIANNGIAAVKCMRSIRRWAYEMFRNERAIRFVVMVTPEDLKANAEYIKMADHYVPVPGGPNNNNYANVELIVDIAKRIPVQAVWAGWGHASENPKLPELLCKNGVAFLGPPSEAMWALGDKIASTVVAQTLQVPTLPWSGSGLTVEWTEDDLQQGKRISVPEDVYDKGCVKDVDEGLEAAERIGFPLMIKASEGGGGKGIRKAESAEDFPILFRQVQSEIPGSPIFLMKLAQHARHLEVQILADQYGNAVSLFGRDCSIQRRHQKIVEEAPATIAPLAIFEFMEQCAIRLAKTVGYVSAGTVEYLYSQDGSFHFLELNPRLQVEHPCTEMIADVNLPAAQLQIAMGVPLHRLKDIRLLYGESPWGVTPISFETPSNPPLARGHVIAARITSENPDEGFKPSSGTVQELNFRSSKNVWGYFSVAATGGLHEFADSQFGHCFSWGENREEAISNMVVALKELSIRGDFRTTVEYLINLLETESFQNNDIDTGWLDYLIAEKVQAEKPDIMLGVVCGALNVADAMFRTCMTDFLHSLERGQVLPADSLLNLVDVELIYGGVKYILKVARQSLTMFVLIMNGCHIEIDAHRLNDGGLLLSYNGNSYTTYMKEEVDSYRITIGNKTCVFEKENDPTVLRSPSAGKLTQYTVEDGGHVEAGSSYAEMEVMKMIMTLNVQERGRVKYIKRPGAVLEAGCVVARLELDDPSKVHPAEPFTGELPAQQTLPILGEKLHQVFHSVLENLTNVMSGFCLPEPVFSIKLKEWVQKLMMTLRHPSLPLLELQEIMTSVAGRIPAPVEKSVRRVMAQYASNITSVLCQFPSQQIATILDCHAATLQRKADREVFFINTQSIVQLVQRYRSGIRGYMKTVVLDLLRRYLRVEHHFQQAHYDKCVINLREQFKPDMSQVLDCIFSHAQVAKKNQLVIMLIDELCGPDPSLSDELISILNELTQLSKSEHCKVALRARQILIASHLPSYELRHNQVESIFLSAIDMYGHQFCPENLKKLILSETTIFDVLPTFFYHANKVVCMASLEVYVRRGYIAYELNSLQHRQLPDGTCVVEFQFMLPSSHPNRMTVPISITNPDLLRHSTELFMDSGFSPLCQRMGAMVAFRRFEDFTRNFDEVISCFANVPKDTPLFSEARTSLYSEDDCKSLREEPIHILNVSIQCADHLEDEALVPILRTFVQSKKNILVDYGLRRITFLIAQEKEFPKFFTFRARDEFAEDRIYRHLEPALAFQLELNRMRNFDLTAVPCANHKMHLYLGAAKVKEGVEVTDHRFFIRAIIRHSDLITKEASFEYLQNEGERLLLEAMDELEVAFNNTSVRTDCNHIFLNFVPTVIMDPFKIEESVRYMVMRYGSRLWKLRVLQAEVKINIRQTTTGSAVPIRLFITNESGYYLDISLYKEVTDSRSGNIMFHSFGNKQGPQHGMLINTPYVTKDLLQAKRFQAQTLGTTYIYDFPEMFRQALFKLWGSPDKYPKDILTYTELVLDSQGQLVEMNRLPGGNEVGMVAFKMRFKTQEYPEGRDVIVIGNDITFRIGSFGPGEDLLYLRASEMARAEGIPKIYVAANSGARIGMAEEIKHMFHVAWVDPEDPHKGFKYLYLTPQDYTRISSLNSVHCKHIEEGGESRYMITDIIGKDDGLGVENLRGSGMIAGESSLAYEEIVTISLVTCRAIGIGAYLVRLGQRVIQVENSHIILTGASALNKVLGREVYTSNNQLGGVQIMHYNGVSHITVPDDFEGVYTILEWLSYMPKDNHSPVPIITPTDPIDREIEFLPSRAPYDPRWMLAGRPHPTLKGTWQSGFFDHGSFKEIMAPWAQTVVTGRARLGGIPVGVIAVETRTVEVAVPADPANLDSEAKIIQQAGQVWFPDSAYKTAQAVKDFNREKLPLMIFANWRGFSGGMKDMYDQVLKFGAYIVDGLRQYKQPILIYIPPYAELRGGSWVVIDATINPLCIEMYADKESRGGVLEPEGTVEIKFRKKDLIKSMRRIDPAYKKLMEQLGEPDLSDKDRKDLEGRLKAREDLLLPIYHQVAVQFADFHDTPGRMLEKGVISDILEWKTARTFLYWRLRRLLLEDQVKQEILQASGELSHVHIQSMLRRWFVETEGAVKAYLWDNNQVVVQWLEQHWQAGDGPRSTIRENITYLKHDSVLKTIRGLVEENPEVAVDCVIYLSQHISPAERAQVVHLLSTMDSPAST
The next assay concerns the target fungal (fACC2) (UniProt Q00955). To be noted: read-out: fACC2 (in vitro ACC2 Inhibition Assay, IC50), ADP-Glo, 5 nM ACC2, 20 μM ATP, 20 μM acetyl-CoA. (In ADP-Glo the light output rises with the ADP produced.)
Another assay concerns C. albicans. Kind of assay: Antifungal Activity Assay (broth microtiter MIC), C. albicans. The format is cell-based, Candida albicans. Conditions: Candida albicans, ATCC90028, 48 h. In a few lines:
as §2

Another assay has as its system Botrtyis cinerea (Bc). Kind of assay: Growth inhibition assay of fungal pathogens, Bc. The class given is cell-based. Conditions: 48 h. In outline:
as §1

The next assay has as its system C. krusei. Kind of assay: Antifungal Activity Assay (broth microtiter MIC), C. krusei. The class given is cell-based, Candida krusei. To be noted: Pichia kudriavzevii, ATCC6258, 48 h. In a few lines: as §2

Each structure is given as a SMILES string. Values after ≈ are worked out from the molar mass of the structure shown. Where two headings read alike, the source gives them in different places.

Sequence of fungal (fACC2) (Q00955 whole entry): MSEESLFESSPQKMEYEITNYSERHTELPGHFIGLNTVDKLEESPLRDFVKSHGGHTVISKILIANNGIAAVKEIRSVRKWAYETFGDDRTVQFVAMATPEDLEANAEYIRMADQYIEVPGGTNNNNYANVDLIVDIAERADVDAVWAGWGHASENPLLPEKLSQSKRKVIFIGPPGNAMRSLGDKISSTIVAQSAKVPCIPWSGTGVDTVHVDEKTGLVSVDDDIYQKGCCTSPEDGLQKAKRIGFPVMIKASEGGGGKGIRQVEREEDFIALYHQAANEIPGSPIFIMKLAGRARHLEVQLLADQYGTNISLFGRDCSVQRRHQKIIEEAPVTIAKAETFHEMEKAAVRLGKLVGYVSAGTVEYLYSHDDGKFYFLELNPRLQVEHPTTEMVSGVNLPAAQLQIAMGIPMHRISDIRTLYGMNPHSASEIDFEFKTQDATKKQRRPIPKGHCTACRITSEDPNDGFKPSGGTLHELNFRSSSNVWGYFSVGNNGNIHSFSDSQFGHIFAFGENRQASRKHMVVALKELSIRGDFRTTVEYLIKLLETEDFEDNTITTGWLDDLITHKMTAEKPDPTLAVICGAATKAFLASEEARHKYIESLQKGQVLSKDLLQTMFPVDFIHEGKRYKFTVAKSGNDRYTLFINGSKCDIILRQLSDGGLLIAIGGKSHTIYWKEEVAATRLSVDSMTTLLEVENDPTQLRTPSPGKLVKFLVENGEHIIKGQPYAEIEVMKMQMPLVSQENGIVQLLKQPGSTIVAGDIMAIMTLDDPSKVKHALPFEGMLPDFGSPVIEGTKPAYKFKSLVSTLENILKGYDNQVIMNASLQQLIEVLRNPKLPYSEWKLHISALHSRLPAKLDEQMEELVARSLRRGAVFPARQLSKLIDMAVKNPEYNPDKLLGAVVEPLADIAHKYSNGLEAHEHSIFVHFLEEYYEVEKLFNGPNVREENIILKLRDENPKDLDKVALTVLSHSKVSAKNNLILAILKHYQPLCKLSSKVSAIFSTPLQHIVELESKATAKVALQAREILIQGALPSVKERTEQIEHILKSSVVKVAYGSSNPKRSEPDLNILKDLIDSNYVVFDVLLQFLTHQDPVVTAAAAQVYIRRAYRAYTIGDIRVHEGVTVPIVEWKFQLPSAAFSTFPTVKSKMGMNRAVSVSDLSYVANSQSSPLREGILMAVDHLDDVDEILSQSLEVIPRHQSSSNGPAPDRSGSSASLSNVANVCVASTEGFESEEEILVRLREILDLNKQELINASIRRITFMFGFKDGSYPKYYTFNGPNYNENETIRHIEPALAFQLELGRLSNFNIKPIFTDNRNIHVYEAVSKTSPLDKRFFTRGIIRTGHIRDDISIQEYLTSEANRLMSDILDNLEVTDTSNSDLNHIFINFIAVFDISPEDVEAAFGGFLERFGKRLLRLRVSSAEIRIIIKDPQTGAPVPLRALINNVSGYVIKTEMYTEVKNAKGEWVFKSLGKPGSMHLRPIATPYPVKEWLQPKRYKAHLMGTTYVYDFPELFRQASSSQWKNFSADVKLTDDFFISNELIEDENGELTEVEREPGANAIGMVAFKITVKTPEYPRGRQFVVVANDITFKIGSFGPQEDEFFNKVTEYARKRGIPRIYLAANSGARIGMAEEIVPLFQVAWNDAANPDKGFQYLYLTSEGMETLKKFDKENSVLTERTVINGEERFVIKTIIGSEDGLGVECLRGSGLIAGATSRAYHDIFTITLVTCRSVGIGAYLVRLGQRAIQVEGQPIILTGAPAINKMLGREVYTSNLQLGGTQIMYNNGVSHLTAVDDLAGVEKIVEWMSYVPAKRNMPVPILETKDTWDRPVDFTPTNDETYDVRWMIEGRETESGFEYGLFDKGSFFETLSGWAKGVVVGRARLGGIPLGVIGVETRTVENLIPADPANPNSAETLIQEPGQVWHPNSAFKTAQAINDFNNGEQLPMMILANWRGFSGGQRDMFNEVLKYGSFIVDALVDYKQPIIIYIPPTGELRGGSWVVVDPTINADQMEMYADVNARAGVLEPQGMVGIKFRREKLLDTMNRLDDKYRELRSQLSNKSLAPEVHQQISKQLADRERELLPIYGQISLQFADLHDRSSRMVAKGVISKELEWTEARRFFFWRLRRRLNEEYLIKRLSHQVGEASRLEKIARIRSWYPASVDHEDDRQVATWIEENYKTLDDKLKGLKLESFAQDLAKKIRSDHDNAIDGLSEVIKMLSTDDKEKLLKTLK

In the case of `COc1ccc(F)cc1[C@H](Cn1c(=O)n(C(C)(C)C(N)=O)c(=O)c2c(C)c(-n3nccn3)sc21)OC(C)C` [Compound I-2, (R)-2-(1-(2-(5-fluoro-2-methoxyphenyl)-2-isopropoxyethyl)-5-methyl-2,4-dioxo-6-(2H-1,2,3-triazol-2-yl)-1,4-dihydrothieno[2,3-d]pyrimidin-3(2H)-yl)-2-methylpropanamide], the IC90 with Diplodia maydis (Dm) (Diplodia maydis, growth inhibition at 48 hours vs 2% DMSO control, read-out: Concentration at 90% Inhibition Dm) worked out at 2 µg/mL (≈ 3.67 µM); in the assay on Diplodia maydis (Dm) (Diplodia maydis, growth inhibition vs 2% DMSO control at 48 hours, read-out: Concentration at 90% Inhibition Dm) it was 2 µg/mL (≈ 3.67 µM); in assay [1] (growth inhibition at 48 hours vs 2% DMSO control, read-out: Concentration at 90% Inhibition Fv), 0.4 µg/mL (≈ 0.734 µM); in assay [1] (growth inhibition vs 2% DMSO control at 48 hours, read-out: Concentration at 90% Inhibition Fv) it was 0.4 µg/mL (≈ 0.734 µM); with Rhizoctonia solani (Rs) (mycelial plugs, growth inhibition at 48 hours vs 2% DMSO control, read-out: Concentration at 90% Inhibition Rs) it was 0.08 µg/mL (≈ 0.147 µM); with Rhizoctonia solani (Rs) (mycelial plugs, growth inhibition vs 2% DMSO control at 48 hours, read-out: Concentration at 90% Inhibition Rs), 0.08 µg/mL (≈ 0.147 µM). Besides, the IC90 in assay [2] (growth inhibition at 48 hours vs 2% DMSO control, read-out: Concentration at 90% Inhibition Pc) is > 50 µg/mL; in assay [2] (growth inhibition vs 2% DMSO control at 48 hours, read-out: Concentration at 90% Inhibition Pc), > 50 µg/mL; in the assay on Botrtyis cinerea (Bc) (Botrtyis cinerea, growth inhibition at 48 hours vs 2% DMSO control, read-out: Concentration at 90% Inhibition Bc), 2 µg/mL (≈ 3.67 µM); with Botrtyis cinerea (Bc) (Botrtyis cinerea, growth inhibition vs 2% DMSO control at 48 hours, read-out: Concentration at 90% Inhibition Bc) it was 2 µg/mL (≈ 3.67 µM). Besides, the MIC is 2.1 to 4 µg/mL (≈ 3.86 to 7.34 µM) in the assay with C. parapsilosis (Table 3a, ATCC 22019, 3 replicates, MIC recorded at 48 h, read-out: MIC, C. parapsilosis ATCC 22019); > 4.01 µg/mL with C. parapsilosis (Table 3b (additional results), ATCC 22019, 3 replicates, MIC recorded at 48 h, read-out: MIC, C. parapsilosis ATCC 22019); 2.1 to 4 µg/mL (≈ 3.86 to 7.34 µM) with C. albicans (Table 3a, ATCC 90028, 3 replicates, MIC recorded at 48 h, read-out: MIC, C. albicans ATCC 90028); 1.01 to 2 µg/mL (≈ 1.85 to 3.67 µM) in the assay with C. albicans (Table 3b (additional results), ATCC 90028, 3 replicates, MIC recorded at 48 h, read-out: MIC, C. albicans ATCC 90028); 0.25 to 1 µg/mL (≈ 0.459 to 1.84 µM) in the assay with C. krusei (Table 3a, ATCC 6258, 3 replicates, MIC recorded at 48 h, read-out: MIC, C. krusei ATCC 6258); 0.25 to 1 µg/mL (≈ 0.459 to 1.84 µM) with C. krusei (Table 3b (additional results), ATCC 6258, 3 replicates, MIC recorded at 48 h, read-out: MIC, C. krusei ATCC 6258). Besides, the IC50 against human (hACC2) (Table 2a) lay within 1 to 5 nM; against human (hACC2) (Table 2b, additional results), 1 to 5 nM; on fungal (fACC2) (Table 2a), 1 to 5 nM; at fungal (fACC2) (Table 2b, additional results) it was 1 to 5 nM.

Regarding `CCNC(=O)C(C)(C)n1c(=O)c2c(C)c(-n3nccn3)sc2n(C[C@H](OC(C)C)c2cc(F)ccc2OC)c1=O` [Compound I-3, (R)—N-ethyl-2-(1-(2-(5-fluoro-2-methoxyphenyl)-2-isopropoxyethyl)-5-methyl-2,4-dioxo-6-(2H-1,2,3-triazol-2-yl)-1,4-dihydrothieno[2,3-d]pyrimidin-3(2H)-yl)-2-methylpropanamide], the IC90 in the assay with Diplodia maydis (Dm) (read-out: Concentration at 90% Inhibition Dm, Diplodia maydis, growth inhibition at 48 hours vs 2% DMSO control) was determined as 0.4 µg/mL (≈ 0.698 µM); with Diplodia maydis (Dm) (read-out: Concentration at 90% Inhibition Dm, Diplodia maydis, growth inhibition vs 2% DMSO control at 48 hours), 0.4 µg/mL (≈ 0.698 µM); in assay [1] (read-out: Concentration at 90% Inhibition Fv, Fusarium virguliforme, growth inhibition at 48 hours vs 2% DMSO control), 0.4 µg/mL (≈ 0.698 µM); in [1] (read-out: Concentration at 90% Inhibition Fv, Fusarium virguliforme, growth inhibition vs 2% DMSO control at 48 hours) it was 0.4 µg/mL (≈ 0.698 µM); in the assay on Rhizoctonia solani (Rs) (read-out: Concentration at 90% Inhibition Rs, Rhizoctonia solani, mycelial plugs, growth inhibition at 48 hours vs 2% DMSO control) it was 0.08 µg/mL (≈ 0.14 µM); in the assay with Rhizoctonia solani (Rs) (read-out: Concentration at 90% Inhibition Rs, Rhizoctonia solani, mycelial plugs, growth inhibition vs 2% DMSO control at 48 hours) it was 0.08 µg/mL (≈ 0.14 µM). In addition, the IC90 in assay [2] (read-out: Concentration at 90% Inhibition Pc, Phytophthora capsici, growth inhibition at 48 hours vs 2% DMSO control) was > 50 µg/mL; in assay [2] (read-out: Concentration at 90% Inhibition Pc, Phytophthora capsici, growth inhibition vs 2% DMSO control at 48 hours) it was > 50 µg/mL; in the assay with Botrtyis cinerea (Bc) (read-out: Concentration at 90% Inhibition Bc, Botrtyis cinerea, growth inhibition at 48 hours vs 2% DMSO control), 0.4 µg/mL (≈ 0.698 µM); in the assay on Botrtyis cinerea (Bc) (read-out: Concentration at 90% Inhibition Bc, Botrtyis cinerea, growth inhibition vs 2% DMSO control at 48 hours) it was 0.4 µg/mL (≈ 0.698 µM). Moreover, the MIC in the assay on C. parapsilosis (read-out: MIC, C. parapsilosis ATCC 22019, Table 3a, 3 replicates, MIC recorded at 48 h) fell in the range of 1.1 to 2 µg/mL (≈ 1.92 to 3.49 µM); in the assay with C. parapsilosis (read-out: MIC, C. parapsilosis ATCC 22019, Table 3b (additional results), 3 replicates, MIC recorded at 48 h), 2.01 to 4 µg/mL (≈ 3.51 to 6.98 µM); with C. albicans (read-out: MIC, C. albicans ATCC 90028, Table 3a, 3 replicates, MIC recorded at 48 h), 1.1 to 2 µg/mL (≈ 1.92 to 3.49 µM); in the assay on C. albicans (read-out: MIC, C. albicans ATCC 90028, Table 3b (additional results), 3 replicates, MIC recorded at 48 h), 1.01 to 2 µg/mL (≈ 1.76 to 3.49 µM); in the assay on C. krusei (read-out: MIC, C. krusei ATCC 6258, Table 3a, 3 replicates, MIC recorded at 48 h) it was 0.25 to 1 µg/mL (≈ 0.437 to 1.75 µM); with C. krusei (read-out: MIC, C. krusei ATCC 6258, Table 3b (additional results), 3 replicates, MIC recorded at 48 h), 0.25 to 1 µg/mL (≈ 0.437 to 1.75 µM). Further, the IC50 against human (hACC2) (Table 2a) fell in the range of 5 to 10 nM; on human (hACC2) (Table 2b, additional results), 5 to 10 nM; on fungal (fACC2) (Table 2a), 1 to 5 nM; on fungal (fACC2) (Table 2b, additional results), 1 to 5 nM.

Usually MIC stands for the lowest concentration that inhibits growth of the organism. In general, IC50 refers to the concentration that gives 50% inhibition.
